Results: ChEMBL document CHEMBL4177727, “Synthesis and biological evaluation of 1-amino isochromans from 2-bromoethyl benzaldehyde and amines in acid medium” (2018)

Assays:
Assay type in all cases: functional
Settings in all cases: read-out: IZ
Bacillus subtilis = assay: Antibacterial activity against Bacillus subtilis MTCC 441 at 1 ug/ml under overnight incubation condition by paper disc method
Pseudomonas aeruginosa = assay: Antibacterial activity against Pseudomonas aeruginosa MTCC 424 at 1 ug/ml under overnight incubation condition by paper disc method
Staphylococcus aureus = assay: Antibacterial activity against Staphylococcus aureus MTCC 96 at 1 ug/ml under overnight incubation condition by paper disc method
Escherichia coli = assay: Antibacterial activity against Escherichia coli MTCC 443 at 1 ug/ml under overnight incubation condition by paper disc method

Row | Structure (SMILES) | zone of inhibition at 1 µg/mL (Bacillus subtilis) [mm] | zone of inhibition at 1 µg/mL (Pseudomonas aeruginosa) [mm] | zone of inhibition at 1 µg/mL (Staphylococcus aureus) [mm] | zone of inhibition at 1 µg/mL (Escherichia coli) [mm]
1 | Cc1cccc(NC2OCCc3ccccc32)n1 (stereo not given) | 4 | 6 | 4.5 | 3
2 | CCn1cc(C(=O)O)c(=O)c2cc(F)c(N3CCNCC3)cc21 [NORFLOXACIN] |  | 9.5 | 7 | 
3 | O=[N+]([O-])c1ccc(NC2OCCc3ccccc32)cc1 (stereo not given) | 5 | 4 | 3 | 4.5
4 | Fc1ccc2nc(NC3OCCc4ccccc43)sc2c1 (stereo not given) | 4.5 | 3 | 2.5 | 4
5 | Cc1ccc2nc(NC3OCCc4ccccc43)sc2c1 (stereo not given) | 2.5 | 2.5 | 2.5 | 2.5
6 | CC1COc2c(N3CCN(C)CC3)c(F)cc3c(=O)c(C(=O)O)cn1c23 (stereo not given) [OFLOXACIN] | 10 |  |  | 11
7 | Ic1ccc(NC2OCCc3ccccc32)nc1 (stereo not given) | 6 | 4.5 | 3 | 3.5
8 | Cc1cc(Br)cnc1NCCc1ccccc1C=O | 3 | 5 | 4 | 3.5
9 | COc1cccc2sc(NC3OCCc4ccccc43)nc12 (stereo not given) | 3 | 4 | 2.5 | 3
10 | Fc1ccc(-c2cnc(NC3OCCc4ccccc43)s2)cc1 (stereo not given) | 2.5 | 5 | 3 | 6
11 | Brc1ccc2nc(NC3OCCc4ccccc43)sc2c1 (stereo not given) | 2.5 | 5 | 5 | 2.5
12 | CCOc1ccc2nc(NC3OCCc4ccccc43)sc2c1 (stereo not given) | 7.5 | 5 | 6 | 6.5
13 | Cc1nc(NC2OCCc3ccccc32)sc1-c1ccccc1 (stereo not given) | 2.5 | 3 | 2.5 | 2.5
14 | FC(F)(F)c1ccc2nc(NC3OCCc4ccccc43)sc2c1 (stereo not given) | 2.5 | 2.5 | 2.5 | 2.5
15 | c1ccc2c(c1)CCOC2Nc1nc2ccccc2s1 (stereo not given) | 2.5 | 3 | 3 | 2.5
16 | Fc1nc(NC2OCCc3ccccc32)sc1F (stereo not given) | 3 | 4 | 3 | 3
